Measured values: the supplement of paper PMC10331698
± gives the standard deviation of the averaged measurements.

Columns and labels:
Test in all cases: level (log10 ratio to DMSO vehicle control); higher = higher biomarker level / cell amount than vehicle control
[1] = compound: FC(F)C(F)(F)COCC1CO1 [((2,2,3,3-Tetrafluoropropoxy)methyl)oxirane]; conditions: in DMSO
Procedure: (§1)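 BioMAP Diversity Plus panel of 12 human primary cell co-culture systems (3C, 4H, LPS, SAg, BT, BF4T, BE3C, CASM3C, HDF3CGF, KF3CT, MyoF, Mphg). Compounds were added 1 h before stimulation and left for 24 h (MyoF 48 h; BT 72 h for soluble read-outs or 6 d for IgG). Biomarkers were read by ELISA, cytotoxicity by SRB, PBMC viability and proliferation by Alamar Blue. Each well value was divided by the mean of 8 DMSO control wells on the same plate and log10 transformed; duplicate blinded samples were tested at 4 concentrations.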

[2] = compound: O=S(=O)(O)C(F)(F)C(F)(F)C(F)(F)C(F)(F)C(F)(F)C(F)(F)F [Perfluorohexanesulfonic acid]; conditions: in DMSO
Procedure: as §1

[3] = compound: C=C(C)C(=O)OCCC(F)(F)C(F)(F)C(F)(F)C(F)(F)C(F)(C(F)(F)F)C(F)(F)F [(Perfluoro-5-methylhexyl)ethyl 2-methylprop-2-enoate]; conditions: in DMSO
Procedure: as §1

[4] = compound: C=CC(=O)OCC(F)(F)C(F)(F)C(F)(F)C(F)(F)C(F)(F)C(F)(F)C(F)(F)F [1H,1H-Perfluorooctyl acrylate]; conditions: in DMSO
Procedure: as §1

[5] = compound: O=C(O)C(F)(F)C(F)(F)C(F)(F)C(F)(F)C(F)(F)C(F)(F)C(F)(F)C(F)F [9-H-Perfluorononanoic acid]; conditions: in DMSO
Procedure: as §1

[6] = compound: OCCCC(F)(F)C(F)(F)C(F)(F)C(F)(F)C(F)(F)C(F)(F)C(F)(F)F [7:3 Fluorotelomer alcohol]; conditions: 6700 nM; in DMSO
Procedure: as §1

[7] = compound: O=C(O)C(F)(F)C(F)(F)C(F)F [4H-Perfluorobutanoic acid]; conditions: in DMSO
Procedure: as §1

Test System	level (log10) ([1]; 6700 nM)	level (log10) ([1]; 20000 nM)	level (log10) ([1]; 60000 nM)	level (log10) ([2]; 6700 nM)	level (log10) ([2]; 20000 nM)	level (log10) ([2]; 60000 nM)	level (log10) ([3]; 6700 nM)	level (log10) ([3]; 20000 nM)	level (log10) ([4]; 6700 nM)	level (log10) ([4]; 20000 nM)	level (log10) ([4]; 60000 nM)	level (log10) ([5]; 6700 nM)	level (log10) ([5]; 20000 nM)	level (log10) ([5]; 60000 nM)	level (log10) [6]	level (log10) ([7]; 6700 nM)	level (log10) ([7]; 20000 nM)	level (log10) ([7]; 60000 nM)
HDF3CGF:TIMP-1	0.0075 ± 0.023	0.002 ± 0.011	0 ± 0.055	0.0145 ± 0.016	0.049 ± 0.021	0.094 ± 0.038	-0.035 ± 0.0071	-0.0345 ± 0.0078	-0.026 ± 0.05	-0.029 ± 0.0057	-0.015 ± 0.038	-0.04 ± 0.0042	0.008 ± 0.0071	0.0385 ± 0.0021	-0.012	-0.015 ± 0.031	-0.007 ± 0.0014	0.0115 ± 0.021
HDF3CGF:CD54/ICAM-1	0.001 ± 0.013	0.006 ± 0.0014	-0.007 ± 0.018	-0.0195 ± 0.00071	-0.0325 ± 0.00071	-0.0345 ± 0.0035	0.0005 ± 0.016	-0.0045 ± 0.026	-0.015 ± 0.0028	-0.037 ± 0.0042	-0.0545 ± 0.013	-0.035 ± 0.042	-0.052 ± 0.021	-0.045 ± 0.02	-0.024 ± 0.0085	0.009 ± 0.021	0.013 ± 0.0099	0.0035 ± 0.005
KF3CT:CCL2/MCP-1	-0.0245 ± 0.0021	-0.0045 ± 0.026	0.012 ± 0.013	0.0075 ± 0.032	-0.001 ± 0.013	0.0205 ± 0.023	-0.0235 ± 0.0092	-0.0125 ± 0.037	-0.0195 ± 0.022	-0.0195 ± 0.0021	-0.016 ± 0.011	-0.04 ± 0.0028	-0.0335 ± 0.0078	0.009 ± 0.065	-0.0105 ± 0.005	-0.0705 ± 0.0092	-0.032 ± 0.0099	-0.0115 ± 0.023
HDF3CGF:Proliferation 72hr	-0.054 ± 0.0057	-0.023 ± 0.0042	-0.099 ± 0.0014	0.054 ± 0.035	0.072 ± 0.051	0.107 ± 0.024	-0.015 ± 0.0028	-0.014	0.0035 ± 0.0092	-0.056 ± 0.078	-0.168 ± 0.0092	0.062 ± 0.018	0.0905 ± 0.049	-0.0045 ± 0.098	-0.49 ± 0.0042	-0.0415 ± 0.012	-0.03 ± 0.0042	0.066 ± 0.02
MyoF:Decorin	-0.0065 ± 0.0035	-0.007 ± 0.0071	0.0075 ± 0.012	-0.0305 ± 0.046	-0.0105 ± 0.00071	-0.0095 ± 0.0064	-0.006 ± 0.037	0.008 ± 0.052	-0.0145 ± 0.011	-0.005	0.003 ± 0.018	0.0315 ± 0.0035	0.051 ± 0.0071	0.093 ± 0.016	0.0355 ± 0.059	-0.005 ± 0.048	0.003 ± 0.064	0.0655 ± 0.088
HDF3CGF:CD106/VCAM-1	-0.001 ± 0.016	-0.0075 ± 0.023	-0.0295 ± 0.037	0.0105 ± 0.011	0.0165 ± 0.00071	-0.0155 ± 0.0035	0.02 ± 0.023	-0.0275 ± 0.011	-0.016 ± 0.011	-0.031 ± 0.013	-0.097 ± 0.0057	-0.041 ± 0.018	-0.064 ± 0.013	-0.066 ± 0.013	-0.0795 ± 0.005	-0.0385 ± 0.018	-0.0525 ± 0.022	-0.0445 ± 0.096
CASM3C:CXCL8/IL-8	-0.003 ± 0.0085	-0.0195 ± 0.028	0.0215 ± 0.032	-0.006 ± 0.013	-0.003	0.026 ± 0.014	0.005 ± 0.037	0.019 ± 0.028	0.004 ± 0.0099	-0.006 ± 0.011	0.016 ± 0.0028	-0.002 ± 0.0057	-0.0045 ± 0.00071	0.0035 ± 0.0035	-0.0145 ± 0.005	-0.003 ± 0.0057	0.004 ± 0.0042	0.0135 ± 0.033
